Some test systems named below: A498 renal; A549 NSCLC; CCRF-CEM leukemia; HOP-62 NSCLC; K-562 leukemia; M14 melanoma; NCI-H226 lung; OVCAR-3 ovarian; SN12C renal; SNB-19 CNS.
Common to all, as to experiment: growth of human tumour cells (NCI), 48 h

Where “and” joins values, the source holds several entries; their conditions need not be identical. Identical values can stand only once.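 A five-concentration, 48-hour dose response in 96-well plates underlies each endpoint, interpolated linearly between surrounding concentrations. At the GI50, growth is halved. TGI marks complete inhibition of growth.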

The values below come from PubChem BioAssay (NCI).

`Clc1ccc(N2CCC(N3CCCC3)CC2)cc1-c1nc2ccccc2[nH]1`: the GI50 in the experiment on A498 renal is 12.8 µM; in the experiment on A549 NSCLC, 27.2 µM; in the experiment with CCRF-CEM leukemia, 25.9 µM; in the experiment with HOP-62 NSCLC, 19.8 µM; with K-562 leukemia, 17 µM; with M14 melanoma, 16.7 µM. The GI50 was 18.4 µM in the experiment on NCI-H226 lung, 17.8 µM in the experiment with OVCAR-3 ovarian, 25 µM in the experiment on SN12C renal and 33.7 µM in the experiment on SNB-19 CNS. Further, the TGI in the experiment on A498 renal was 27.8 µM; in the experiment with A549 NSCLC it was over 84.4 µM; with CCRF-CEM leukemia, 79.4 µM; in the experiment with HOP-62 NSCLC it was 40.1 µM; with K-562 leukemia, 44.5 µM; in the experiment with M14 melanoma, 31.8 µM. The TGI is 43.8 µM in the experiment with NCI-H226 lung, 40.4 µM in the experiment on OVCAR-3 ovarian, over 73.7 µM with SN12C renal and over 100 µM with SNB-19 CNS.
Turning to `CCN(CC)CCCNc1[nH]ncc2c(C)c3nc4ccccc4c3cc12`, the TGI was 4.73 µM in the experiment on A498 renal; 2.94 µM and 14.2 µM in the experiment on A549 NSCLC; 2.58 µM and 13.3 µM in the experiment with HOP-62 NSCLC; 1.79 µM and 9.54 µM in the experiment with K-562 leukemia; 2.44 µM and 6.41 µM with M14 melanoma; 2.5 µM and 2.09 µM in the experiment with NCI-H226 lung. Moreover, the TGI in the experiment on OVCAR-3 ovarian is 3.14 µM and 7.11 µM; in the experiment on SN12C renal it was 3.87 µM and 3.6 µM; with SNB-19 CNS, 5.96 µM and 4.79 µM. Moreover, the GI50 in the experiment on A549 NSCLC was 0.398 µM; with CCRF-CEM leukemia, 0.132 µM; with HOP-62 NSCLC, 1.08 µM; in the experiment on K-562 leukemia, 0.347 µM and 0.372 µM; with M14 melanoma, 1.16 µM; in the experiment with NCI-H226 lung, 0.566 µM. The results for the GI50 in the experiment with OVCAR-3 ovarian, in the experiment with SN12C renal and in the experiment on SNB-19 CNS were 0.589 µM, 0.585 µM and 0.857 µM, respectively.
On to `CN(C)c1ccc(/C=N/NC(=O)c2cccc3ccccc23)c(Cl)c1`, for which the GI50 was 0.422 µM in the experiment with A498 renal; 0.926 µM in the experiment on A549 NSCLC; 0.581 µM in the experiment on CCRF-CEM leukemia; 4.18 µM with HOP-62 NSCLC; 0.398 µM with K-562 leukemia; 0.763 µM in the experiment with M14 melanoma. Moreover, the GI50 is 12.3 µM in the experiment on NCI-H226 lung, 0.865 µM in the experiment on OVCAR-3 ovarian, 8.85 µM in the experiment on SN12C renal and 15.5 µM in the experiment on SNB-19 CNS. Also, the TGI in the experiment on A498 renal is 6.26 µM; in the experiment on A549 NSCLC it was over 100 µM; with CCRF-CEM leukemia it was over 100 µM; in the experiment on HOP-62 NSCLC it was 33.4 µM; in the experiment on K-562 leukemia, over 100 µM; in the experiment with M14 melanoma it was over 100 µM. The TGI is over 100 µM in the experiment on NCI-H226 lung, 13.5 µM with OVCAR-3 ovarian, over 100 µM in the experiment on SN12C renal and over 100 µM with SNB-19 CNS.
Turning to `CCN1C(=O)N(CC)C2C1NN=c1s/c(=C\c3cccc([N+](=O)[O-])c3)c(=O)n12` (stereo not drawn), the GI50 with A498 renal is 0.0254 µM; in the experiment with A549 NSCLC, 0.181 µM; with CCRF-CEM leukemia, 0.116 µM; in the experiment on HOP-62 NSCLC it was 0.104 µM; in the experiment with K-562 leukemia it was 0.0411 µM; in the experiment on M14 melanoma it was 0.0533 µM. Besides, the GI50 in the experiment with NCI-H226 lung was 8.25 µM; in the experiment with OVCAR-3 ovarian it was 0.0575 µM; with SN12C renal, 0.149 µM; with SNB-19 CNS, 0.128 µM. Further, the TGI in the experiment on A498 renal is 0.0916 µM; with A549 NSCLC it was over 100 µM; in the experiment with CCRF-CEM leukemia, over 100 µM; in the experiment with HOP-62 NSCLC, over 100 µM; in the experiment with K-562 leukemia, over 100 µM; in the experiment on M14 melanoma, over 100 µM. Moreover, the TGI in the experiment on NCI-H226 lung is over 100 µM; in the experiment with OVCAR-3 ovarian, 0.399 µM; with SN12C renal it was over 100 µM; in the experiment on SNB-19 CNS, over 100 µM.
`Cc1ccc(S(=O)(=O)SCc2ccccc2)cc1`: the TGI in the experiment with A498 renal is over 100 µM; in the experiment with A549 NSCLC, over 100 µM; in the experiment on CCRF-CEM leukemia it was 7.25 µM; with HOP-62 NSCLC, over 79.3 µM; with K-562 leukemia it was 27.3 µM; with M14 melanoma it was 39.7 µM. For the same compound, the TGI was 40.9 µM in the experiment on NCI-H226 lung, 45.5 µM in the experiment with OVCAR-3 ovarian, 50.4 µM with SN12C renal and over 91.7 µM in the experiment with SNB-19 CNS.
With `O=C(NC(=O)c1cc2cc(Br)cc(Br)c2oc1=O)Oc1ccccc1`, the TGI in the experiment on A498 renal, with A549 NSCLC, in the experiment on CCRF-CEM leukemia, with HOP-62 NSCLC, in the experiment with K-562 leukemia and with M14 melanoma was over 100 µM each time. The TGI in the experiment on NCI-H226 lung, in the experiment on OVCAR-3 ovarian, in the experiment on SN12C renal and in the experiment with SNB-19 CNS was over 100 µM each time.
As to `N=C(N)SCc1ccc([N+](=O)[O-])cc1[N+](=O)[O-]`, the GI50 is 29.9 µM with A498 renal; 21.6 µM in the experiment with A549 NSCLC; 3.77 µM in the experiment on CCRF-CEM leukemia; 33.9 µM in the experiment on HOP-62 NSCLC; 3.42 µM with K-562 leukemia; 12.8 µM in the experiment with M14 melanoma. Besides, the GI50 in the experiment with NCI-H226 lung is 25.3 µM; in the experiment with OVCAR-3 ovarian, 4.54 µM; in the experiment with SN12C renal it was 12.1 µM; with SNB-19 CNS, 26 µM. Also, the TGI in the experiment on A498 renal is 66.6 µM; with A549 NSCLC it was 66.4 µM; with CCRF-CEM leukemia, over 100 µM; in the experiment on HOP-62 NSCLC it was 79.1 µM; in the experiment with K-562 leukemia, 21 µM; in the experiment on M14 melanoma it was 29.4 µM. Also, the TGI came to 62.4 µM in the experiment with NCI-H226 lung, 15.2 µM with OVCAR-3 ovarian, 27.2 µM with SN12C renal and 79 µM in the experiment with SNB-19 CNS.
With `CC12CCC(O)CC1=CCC1C2CCC2(C)C(c3cccnc3)=CCC12` (stereo not drawn), the GI50 in the experiment with A498 renal was over 100 µM; in the experiment with A549 NSCLC, over 100 µM; in the experiment on CCRF-CEM leukemia, over 100 µM; in the experiment on HOP-62 NSCLC, over 100 µM; in the experiment on K-562 leukemia it was 76.8 µM; with M14 melanoma it was over 100 µM. Besides, the GI50 in the experiment on NCI-H226 lung, in the experiment with OVCAR-3 ovarian, in the experiment with SN12C renal and in the experiment with SNB-19 CNS was over 100 µM throughout. Besides, the TGI with A498 renal, in the experiment on A549 NSCLC, with CCRF-CEM leukemia, in the experiment with HOP-62 NSCLC, in the experiment with K-562 leukemia and in the experiment on M14 melanoma was over 100 µM throughout. Moreover, the TGI in the experiment on NCI-H226 lung, with OVCAR-3 ovarian, in the experiment with SN12C renal and in the experiment with SNB-19 CNS was over 100 µM in each case.
In the case of `CC/C=C\C[C@H](O)C/C=C1/C(=O)C=C[C@@H]1C/C=C\CCCC(=O)NC`, the GI50 was 2.34 µM with A498 renal; 2.55 µM in the experiment with A549 NSCLC; 1.47 µM in the experiment on CCRF-CEM leukemia; 2.3 µM in the experiment on HOP-62 NSCLC; 1.7 µM in the experiment with K-562 leukemia; 1.76 µM in the experiment on M14 melanoma. Moreover, the GI50 in the experiment with NCI-H226 lung is 2.15 µM; with OVCAR-3 ovarian, 1.2 µM; in the experiment on SN12C renal, 2.33 µM; in the experiment on SNB-19 CNS, 6.91 µM. The TGI was 5.12 µM with A498 renal; 6.81 µM in the experiment with A549 NSCLC; 8.13 µM in the experiment on CCRF-CEM leukemia; 5.33 µM in the experiment with HOP-62 NSCLC; over 100 µM in the experiment on K-562 leukemia; 4.75 µM in the experiment with M14 melanoma. The TGI in the experiment with NCI-H226 lung came out at 4.95 µM; with OVCAR-3 ovarian, 4.11 µM; in the experiment on SN12C renal it was 8.5 µM; with SNB-19 CNS, 20.9 µM.
